Read-outs that look alike come from different tables or passages of the source.
How the values were obtained:
FGF23 [1] = conditions: for mean plasma FGF23 increase over baseline: melanoma patients; for Increase of FGF23 levels over basal levels (up to): 400 mg daily
Procedure: Blood sampling was performed at the indicated day and cycle. FGF23 levels were measured in plasma. The values given for C1D1 are the baseline values.
(§1) Methods: Patients were treated orally with 200, 300, 400 or 500 mg/day on a once daily continuous dose schedule. […] Plasma samples from 43 patients were collected. […] Plasma FGF23 was evaluated by ELISA

clinical = conditions: human, in vivo, po
Procedure: as §1

FGF23 [2] = assay: FGF23 ELISA in plasma of mRCC patients; assay type: in vivo, human
[3] = test system: FRS2 tyrosine phosphorylation (read-out for FGFR activity); assay: Ex vivo FRS2 tyrosine phosphorylation in RT112 tumor xenografts in rats (Western blot); parameters: species or system rat; conditions: single oral 10, 25 or 50 mg/kg; tumors dissected 3 h post-treatment
Procedure: FIG. 12 is a photograph showing the ex vivo analysis of RT112 tumor xenografts. Tumors were dissected 3 h after compound administration. Tumor tissue was lysed and FRS2 tyrosine phosphorylation levels were analysed by western blot using an antibody from Cell Signaling (#3864) that detects FRS2 when phosphorylated on Tyr196. As a loading control, membrane was probed with an antibody from Sigma (#T4026) that detects b-tubulin.
Compound Formulation and Animal Treatment. […] The application volumes were 5 ml/kg.
Ex vivo analysis of RT112 tumor xenografts: RT112 bladder cancer cells express high levels of FGFR3, the activity of which can be monitored in these cells by measuring changes in FRS2 tyrosine phosphorylation, a substrate of the FGFRs. The tumor material was pulverized using a swing mill (RETSCH, either MM2 or MM200). Aliquots of tumor powder (50 mg) were lysed in ice-chilled lysis buffer containing 50 mM Tris pH 7.5, 150 mM NaCl, 1 mM EGTA, 5 mM EDTA, 1% Triton, 2 mM NaVanadate, 1 mM PMSF and protease inhibitors cocktail Roche #11873580001). Lysates were clarified by centrifugation at 12000×g for 15 min and protein concentration was determined using the DC protein assay reagents (Bio Rad #500-0116) and a BSA standard. Total cell lysates were subjected to SDS-PAGE and proteins blotted onto PVDF membranes. […]

FGF23 [4] = assay: FGF23 ELISA in serum of wistar rats; assay type: in vivo, rat; conditions: single oral 50 mg/kg; 24 h post administration; p<0.01
Procedure: Data are presented as means of n=6, ±SD.
Animals. Experiments were performed in female wistar rats furth WF/Ico
The application volumes were 5 ml/kg.
Blood samples were drawn sublingually at 24 h post-compound administration. Plasma, as well as serum samples were prepared from each blood sample.

[5] = test system: phosphorylated and activated FGFR; assay: Immunohistochemistry of pFGFR in melanoma tumor biopsy; conditions: melanoma patient, 400 mg, cycle 1 Day 15
FGF23 [6] = assay: FGF23 ELISA in serum of Rowett rats bearing RT112 xenografts; conditions: single oral 10, 25, 50 mg/kg; 24 hours post dosing; p<0.01
Procedure: FGF23 levels were monitored using the FGF23 ELISA kit from Kainos, catalogue number CY-4000, and are expressed in pg/mL. Data are presented as means of n=4, ±SD. Data were compared by one-way Anova post-hoc Dunnett's versus vehicle.
Animals. Experiments were performed in female Rowett rats Hsd:RH-Foxlrnu. These athymic Nude-Rats were obtained from Harlan (The Netherlands)
Compound Formulation and Animal Treatment. […] Vehicle consisted of acetic acid-acetate buffer (pH 4.6)/PEG300 (2:1 v/v). The application volumes were 5 ml/kg.
Blood and tissue sampling for ex vivo analysis. Blood samples were drawn sublingually at 3 h, 7 h and 24 h post-compound administration. Plasma and as serum were prepared from each blood sample. At the same time points, tumors were dissected and snap frozen in liquid nitrogen.

[7] = Phase I clinical trial in metastatic renal cell carcinoma patients: PK, toxicity, efficacy

In the case of CN1CCN(c2ccc3nc(-c4c(N)c5c(F)cccc5[nH]c4=O)[nH]c3c2)CC1 [TKI258], the “FGF23” value (FGF23 [1]; Patient A, 200 mg daily oral, C1D15) is reported as 39.8 pg/mL, the “FGF23” value (FGF23 [1]; Patient A, 200 mg daily oral, C1D26) is reported as 24.4 pg/mL and the “FGF23” value (FGF23 [1]; Patient A, 200 mg daily oral, C3D26) is reported as 31.8 pg/mL. For the same compound, the “FGF23” value (FGF23 [1]; Patient A, 200 mg daily oral, C6D26) was 21.1 pg/mL, the “FGF23” value (FGF23 [1]; Patient A, 200 mg daily oral, C9D26) was 39.6 pg/mL and the “FGF23” value (FGF23 [1]; Patient B, 400 mg daily oral, C1D15) was 94.1 pg/mL. The “FGF23” value (FGF23 [1]; Patient B, 400 mg daily oral, C3D26) was 88.5 pg/mL, the “FGF23” value (FGF23 [1]; Patient B, 400 mg daily oral, C4D26) was 141.5 pg/mL and the “FGF23” value (FGF23 [1]; Patient C, 400 mg daily oral, C1D15) was 86.5 pg/mL. For the same compound, the “peak of FGF23 (day in first cycle of treatment)” value (FGF23 [1]; melanoma and metastatic renal cell carcinoma patients, 400 mg or 500 mg, preliminary observation) was about 15 days, the “mean plasma FGF23 increase over baseline” value (FGF23 [1]; day 15 of the first treatment cycle) was 63% and the “mean plasma FGF23 increase over baseline” value (FGF23 [1]; end of the first treatment cycle) was 68%. For the same compound, the “plasma FGF23 increase over baseline” value (FGF23 [1]; one patient, 400 mg, Cycle 1 Day 15) was 98%, the “plasma FGF23 level” value (FGF23 [1]; one patient, 400 mg, Cycle 1 Day 15 (baseline level 40 pg/ml)) was “about 80 pg/ml” and the “Increase of FGF23 levels over basal levels (up to)” value (shortened to “Increase of FGF23 levels”) (FGF23 [1]; patient B) was “up to 1.96 fold”. The “Increase of FGF23 levels” value (FGF23 [1]; patient B, listed as TK1258) was at most 1.96 fold, the “Increase of FGF23 levels” value (FGF23 [1]; patient C) was at most 2.1 fold and the AUC(0-t) (clinical; 400 mg) was about 3000 ng·h/mL. The AUC(0-t) (clinical; 500 mg) was about 4100 ng·h/mL, the “peak of FGF23 level (day of cycle 1)” value (FGF23 [2]; mRCC patients having increased FGF23) was about 15 days and the “increase of FGF23 level compared to the baseline level” value (FGF23 [2]; mRCC patients having increased FGF23, 500 mg/day) was 1.35-1.75. The “plasma FGF23 levels” value (FGF23 [2]; pts from the first 500 mg/day dosing cohort) was “Induction of plasma FGF23 levels”, the “FRS2 tyrosine phosphorylation in RT112 tumors” value [3] was “inhibited FRS2 tyrosine phosphorylation in a dose-dependent manner” and the “serum levels of FGF23 vs vehicle-treated group” value (FGF23 [4]) was “statistically significant increased in serum levels of FGF23”. For the same compound, the “pFGFR in tumor biopsy (immunohistochemistry)” value [5] was “significant pFGFR inhibition”, the “serum levels of FGF23 vs vehicle-treated group” value (FGF23 [6]) was “dose-dependent increased in serum levels of FGF23” and the “Preliminary evidence of efficacy (other responses)” value ([7]; mRCC patients) was 4 stable disease and 1 dramatic shrinkage/necrosis of some target lesions. For the same compound, the “minor response (change at C4)” value ([7]; one mRCC patient, C4) was −17%.
